According to patent US12357665B2, “Pharmaceutical compositions and uses thereof in treating muscle atrophy” (Tzung-Yan, priority 2020, dated 2025):

Assays:
Assay type in all cases: in vivo, mouse (C57BL/6J)
[1] = tested on: muscle tissues of aging mice fed with sucrose; test: Sucrose-induced muscle atrophy in aging mice, topical administration: histology and muscle atrophy-associated molecules (Example 1); settings: once per day day 17-30, ATG-125 60 mg/kg topical, 4-OHT 1 mg/kg intraperitoneal
Experimental: (§1) Male C57BL/6J (6 and 18 months) mice were fed standard chow and water ad libitum, and housed under conditions of control temperature (26° C.) and illumination (12-hour light/dark cycle). […]
(§2) Muscle tissues were harvested immediately from the mice after they were sacrificed, followed by flash frozen in liquid nitrogen and stored at −80° C. Proteins were extracted from muscle tissues with distilled water containing protease inhibitors, and each protein concentration was determined by protein assay kits. Protein (50 μg) was analyzed on a 10% sodium dodecyl sulfate polyacrylamide gel electrophoresis (SDS-PAGE), and transferred to a polyvinylidene difluoride (PVDF) membrane. […] The optical densities of the bands were quantified using software. […]

[2] = tested on: mTOR/insulin signaling pathway (IGF1R, IRS1, PI3K, AKT, mTOR, S6K, 4EBP1); test: Sucrose-induced aging mice: mTOR/insulin signaling pathway in muscle tissues, Western blot (Example 2); settings: once per day day 17-30, ATG-125 60 mg/kg topical, 4-OHT 1 mg/kg intraperitoneal, FIGS. 4A and 4B
Experimental: as §1, §2

[3] = tested on: mitochondrial biogenesis mediators (SIRT1, PGC1α, NRF1, TFAM, UCP1, UCP2, UCP3); test: Sucrose-induced aging mice: mitochondrial molecules in muscle tissues, mRNA and protein (Example 3); settings: once per day day 17-30, ATG-125 60 mg/kg topical, 4-OHT 1 mg/kg intraperitoneal, FIGS. 5 and 6
Experimental: as §1, §2

[4] = tested on: muscle tissues of sucrose and MPTP-induced aging mice; test: Sucrose and MPTP-induced muscle atrophy in aging mice, oral administration: histology, atrogin-1 and klotho mRNA (Example 4); settings: once per day day 17-30, ATG-125 60 mg/kg oral, selegiline 1 mg/kg intraperitoneal, FIG. 7
Experimental: as §1
Total RNA was isolated from 0.2 g of muscle tissues using RNA extraction kit. For qRT-PCR (real-time reverse transcription-PCR), equal amounts of RNA were retro-transcribed to cDNA using cDNA reverse transcription kit according to the manufacturer's instruction. atrogin-1, klotho, mitochondrial transcription factor A (TFAM), SIRT1, PGC1α, nuclear respiratory factor 1 (NRF1), UCP1, and UCP2 mRNA expressions were evaluated using the SYBR® Green PCR master mix. Relative expression was calculated using the ΔΔCt method with normalization to constitutive genes. […]

[5] = tested on: mitochondrial biogenesis mediators (SIRT1, PGC1α, NRF1, TFAM, UCP1, UCP2); test: Sucrose and MPTP-induced aging mice: mitochondrial molecules mRNA in muscle tissues (Example 5); settings: once per day day 17-30, ATG-125 60 mg/kg oral, selegiline 1 mg/kg intraperitoneal, FIG. 8
Experimental: as §1
Total RNA was isolated from 0.2 g of muscle tissues using RNA extraction kit. For qRT-PCR (real-time reverse transcription-PCR), equal amounts of RNA were retro-transcribed to cDNA using cDNA reverse transcription kit according to the manufacturer's instruction. atrogin-1, klotho, mitochondrial transcription factor A (TFAM), SIRT1, PGC1α, nuclear respiratory factor 1 (NRF1), UCP1, and UCP2 mRNA expressions were evaluated using the SYBR® Green PCR master mix. Relative expression was calculated using the ΔΔCt method with normalization to constitutive genes.
Mitochondria play an essential role in energy production, redox homeostasis, and the regulation of cell death pathways. […] Thus, whether ATG-125 solution improves the mitochondrial function in the animal having muscle atrophy was evaluated in this example, and the results were respectively depicted in FIG. 8.

Row | Molecule | adverse effect of sucrose on muscle tissues (protein levels of pAMPK, FOXO3a, MuRF1, lipofuscin; mRNA levels of Atrogin-1 and Klotho) ([1]; FIGS. 1 to 3) | levels of adipocytes and degenerated myofibers in muscles ([1]; H&E, FIG. 1) | phosphorylated levels (activations) of mTOR/insulin signaling molecules (pIGF1R, pIRS1, pPI3K, pAKT, pmTOR, pS6K, p4EBP1) [2] | expression levels of mitochondrial biogenesis mediators (mRNA SIRT1, PGC1α, NRF1, TFAM, UCP1, UCP2; protein SIRT1, PGC1α, UCP1, UCP2, UCP3) in muscle tissues [3] | adverse effect of sucrose and MPTP on muscle tissues (mRNA levels of Atrogin-1 and Klotho) [4] | levels of degenerated myofibers in muscles ([4]; H&E) | expression levels of mitochondrial biogenesis mediators (mRNA SIRT1, PGC1α, NRF1, TFAM, UCP1, UCP2) in muscle tissues [5]
1 | 4-hydroxytamoxifen [4-OHT] | significantly reversed | decreased | enhanced | increased |  |  | 
2 | C#CCN(C)[C@H](C)Cc1ccccc1 [selegiline] |  |  |  |  | significantly reversed | decreased | increased
